Measured values as given in ChEMBL document CHEMBL4507260 (2021).

Columns and labels:
[1] = biological target: Adenosine receptor A3 (Homo sapiens) (UniProt P0DMS8); assay: A3 CEREP ligand profiling; conditions: Compound concentration 10.0 uM
[2] = biological target: Adrenergic receptor alpha-1 (Homo sapiens) (UniProt P35348+P25100+P35368); assay: a 1 CEREP ligand profiling; format: protein assay; conditions: Compound concentration 10.0 uM
[3] = biological target: Adrenergic receptor alpha-2 (Homo sapiens) (UniProt P08913+P18825+P18089); assay: a 2 CEREP ligand profiling; format: protein assay; conditions: Compound concentration 10.0 uM
[4] = biological target: Substance-K receptor (Homo sapiens) (UniProt P21452); assay: NK2 CEREP ligand profiling; conditions: Compound concentration 10.0 uM
[5] = biological target: Voltage-gated potassium channel (K+V channel) (Homo sapiens, UniProt O43525+O43526+O95259+P16389+P17658+P22001+P22459+P22460+P48547+P51787+P56696+Q03721+Q09470+Q12809+Q14003+Q14721+Q16322+Q6PIU1+Q8NCM2+Q8TAE7+Q8TDN1+Q8TDN2+Q92953+Q96KK3+Q96L42+Q96PR1+Q96RP8+Q9BQ31+Q9H252+Q9H3M0+Q9NR82+Q9NS40+Q9NSA2+Q9NZV8+Q9UIX4+Q9UJ96+Q9UK17+Q9ULD8+Q9ULS6+Q9UQ05); assay: K+V channel CEREP ligand profiling; format: protein assay; conditions: compound concentration 10 uM
[6] = biological target: Sodium channel alpha subunit (Na+ channel) (Homo sapiens, UniProt P35498+P35499+Q01118+Q14524+Q15858+Q99250+Q9NY46+Q9UI33+Q9UQD0+Q9Y5Y9); assay: Na+ channel CEREP ligand profiling; format: protein assay; conditions: compound concentration 10 uM
[7] = biological target: Natriuretic peptides A (Homo sapiens) (UniProt P01160); conditions: Compound concentration 10.0 uM
Description: ANP CEREP ligand profiling

[8] = biological target: Cholecystokinin receptor type A (Homo sapiens) (UniProt P32238); conditions: Compound concentration 10.0 uM
Description: CCKA (CCK1) CEREP ligand profiling

[9] = biological target: Endothelin-1 receptor (Homo sapiens) (UniProt P25101); conditions: Compound concentration 10.0 uM
Description: ETA CEREP ligand profiling

[10] = biological target: Endothelin receptor type B (Homo sapiens) (UniProt P24530); conditions: Compound concentration 10.0 uM
Description: ETB CEREP ligand profiling

[11] = biological target: Tumor necrosis factor (Homo sapiens) (UniProt P01375); conditions: Compound concentration 10.0 uM
Description: TNF-a CEREP ligand profiling

[12] = biological target: P2X receptor (Rattus norvegicus) (UniProt P51579+P49653+P51578+Q64663+P47824+P51577+P49654); conditions: Compound concentration 10.0 uM
Description: P2X CEREP ligand profiling

[13] = biological target: P2Y receptor (Homo sapiens) (UniProt Q9H244+P51582+P47900+P41231+Q15391+Q15077+Q96G91+Q9BPV8); conditions: Compound concentration 10.0 uM
Description: P2Y CEREP ligand profiling

[14] = biological target: Vasoactive intestinal polypeptide receptor 1 (Homo sapiens) (UniProt P32241); conditions: Compound concentration 10.0 uM
Description: VIP1 (VPAC1) CEREP ligand profiling

[15] = tested on: Epidermal growth factor receptor (Homo sapiens), P00533 [UNDEFINED MUTATION]; conditions: Compound concentration 1000.0 nM
Chain of Epidermal growth factor receptor (Homo sapiens), P00533 [UNDEFINED MUTATION] (P00533 whole entry, looked up, change not shown): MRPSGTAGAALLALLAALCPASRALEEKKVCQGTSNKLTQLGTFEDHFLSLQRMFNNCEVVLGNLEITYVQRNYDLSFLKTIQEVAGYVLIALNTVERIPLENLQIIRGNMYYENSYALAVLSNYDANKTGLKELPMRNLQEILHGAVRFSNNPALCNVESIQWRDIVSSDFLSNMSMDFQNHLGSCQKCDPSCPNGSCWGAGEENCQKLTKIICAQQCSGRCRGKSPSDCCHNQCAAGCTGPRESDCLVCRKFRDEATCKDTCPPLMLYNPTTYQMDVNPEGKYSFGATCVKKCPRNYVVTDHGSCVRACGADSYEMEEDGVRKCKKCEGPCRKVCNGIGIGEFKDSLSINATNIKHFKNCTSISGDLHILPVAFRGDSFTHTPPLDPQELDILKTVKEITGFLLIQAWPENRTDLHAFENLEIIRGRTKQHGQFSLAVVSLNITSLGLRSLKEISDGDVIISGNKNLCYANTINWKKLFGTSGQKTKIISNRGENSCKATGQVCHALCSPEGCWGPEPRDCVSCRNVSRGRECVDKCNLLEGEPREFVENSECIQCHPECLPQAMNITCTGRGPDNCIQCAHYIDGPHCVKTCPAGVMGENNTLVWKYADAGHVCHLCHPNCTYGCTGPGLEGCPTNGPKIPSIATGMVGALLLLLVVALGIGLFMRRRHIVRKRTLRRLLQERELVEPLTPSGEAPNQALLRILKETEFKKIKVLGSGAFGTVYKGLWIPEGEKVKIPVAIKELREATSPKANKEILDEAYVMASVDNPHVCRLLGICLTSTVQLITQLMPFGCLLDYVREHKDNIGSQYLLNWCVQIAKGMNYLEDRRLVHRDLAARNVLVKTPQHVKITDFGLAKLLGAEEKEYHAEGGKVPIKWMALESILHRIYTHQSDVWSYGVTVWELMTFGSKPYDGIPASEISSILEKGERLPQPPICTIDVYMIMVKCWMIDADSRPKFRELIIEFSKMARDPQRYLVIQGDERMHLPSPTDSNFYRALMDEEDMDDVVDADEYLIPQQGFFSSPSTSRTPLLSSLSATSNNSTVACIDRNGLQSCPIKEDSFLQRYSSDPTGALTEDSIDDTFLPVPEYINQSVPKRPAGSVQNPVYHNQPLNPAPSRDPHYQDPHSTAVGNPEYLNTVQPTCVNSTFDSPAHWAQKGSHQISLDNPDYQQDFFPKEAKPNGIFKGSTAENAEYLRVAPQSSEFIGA

Chain of Cholecystokinin receptor type A (Homo sapiens) (P32238 whole entry): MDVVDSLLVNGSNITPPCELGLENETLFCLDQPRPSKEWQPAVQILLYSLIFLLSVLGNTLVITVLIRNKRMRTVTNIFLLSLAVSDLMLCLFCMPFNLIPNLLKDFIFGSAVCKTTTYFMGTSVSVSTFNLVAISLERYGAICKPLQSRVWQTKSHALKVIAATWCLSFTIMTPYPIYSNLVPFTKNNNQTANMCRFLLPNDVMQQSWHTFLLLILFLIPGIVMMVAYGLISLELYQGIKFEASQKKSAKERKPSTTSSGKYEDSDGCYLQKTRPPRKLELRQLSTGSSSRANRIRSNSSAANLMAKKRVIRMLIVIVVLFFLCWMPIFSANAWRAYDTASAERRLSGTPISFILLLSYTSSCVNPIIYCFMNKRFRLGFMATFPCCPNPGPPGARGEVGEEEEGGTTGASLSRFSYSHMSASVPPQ
Chain of Natriuretic peptides A (Homo sapiens) (P01160 whole entry): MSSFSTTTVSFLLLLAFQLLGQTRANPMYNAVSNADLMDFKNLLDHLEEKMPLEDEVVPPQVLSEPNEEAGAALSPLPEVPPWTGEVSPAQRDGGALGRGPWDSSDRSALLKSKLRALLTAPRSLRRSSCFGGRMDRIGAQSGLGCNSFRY
Chain of Tumor necrosis factor (Homo sapiens) (P01375 whole entry): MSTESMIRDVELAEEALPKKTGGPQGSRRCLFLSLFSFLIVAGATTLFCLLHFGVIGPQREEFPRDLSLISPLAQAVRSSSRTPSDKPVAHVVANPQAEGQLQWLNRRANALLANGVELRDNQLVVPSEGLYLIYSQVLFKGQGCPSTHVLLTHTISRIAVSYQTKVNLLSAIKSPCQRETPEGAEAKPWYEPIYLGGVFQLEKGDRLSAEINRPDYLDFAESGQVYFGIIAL
Chain of Substance-K receptor (Homo sapiens) (P21452 whole entry): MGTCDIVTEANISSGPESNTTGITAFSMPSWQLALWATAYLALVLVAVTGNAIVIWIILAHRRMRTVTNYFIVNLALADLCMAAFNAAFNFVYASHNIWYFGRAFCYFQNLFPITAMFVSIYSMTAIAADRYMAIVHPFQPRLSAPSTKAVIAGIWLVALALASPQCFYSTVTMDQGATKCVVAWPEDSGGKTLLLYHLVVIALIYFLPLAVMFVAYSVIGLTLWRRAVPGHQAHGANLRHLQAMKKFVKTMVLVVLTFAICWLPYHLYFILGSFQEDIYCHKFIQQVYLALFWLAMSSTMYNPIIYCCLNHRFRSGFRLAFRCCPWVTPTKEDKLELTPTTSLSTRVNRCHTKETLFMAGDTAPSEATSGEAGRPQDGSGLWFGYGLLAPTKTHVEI
Chain of Endothelin-1 receptor (Homo sapiens) (P25101 whole entry): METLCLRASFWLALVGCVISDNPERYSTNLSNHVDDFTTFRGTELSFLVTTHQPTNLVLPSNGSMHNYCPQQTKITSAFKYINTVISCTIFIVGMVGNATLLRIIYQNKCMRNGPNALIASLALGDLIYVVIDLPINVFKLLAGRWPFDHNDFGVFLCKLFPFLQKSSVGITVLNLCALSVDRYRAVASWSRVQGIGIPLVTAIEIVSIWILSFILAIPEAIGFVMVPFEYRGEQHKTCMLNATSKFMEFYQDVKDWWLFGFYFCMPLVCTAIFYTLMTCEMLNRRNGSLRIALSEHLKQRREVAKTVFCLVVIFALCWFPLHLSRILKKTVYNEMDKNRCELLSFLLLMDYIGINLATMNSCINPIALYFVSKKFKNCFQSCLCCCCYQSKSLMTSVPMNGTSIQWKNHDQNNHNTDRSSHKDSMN
Chain of Adenosine receptor A3 (Homo sapiens) (P0DMS8 whole entry): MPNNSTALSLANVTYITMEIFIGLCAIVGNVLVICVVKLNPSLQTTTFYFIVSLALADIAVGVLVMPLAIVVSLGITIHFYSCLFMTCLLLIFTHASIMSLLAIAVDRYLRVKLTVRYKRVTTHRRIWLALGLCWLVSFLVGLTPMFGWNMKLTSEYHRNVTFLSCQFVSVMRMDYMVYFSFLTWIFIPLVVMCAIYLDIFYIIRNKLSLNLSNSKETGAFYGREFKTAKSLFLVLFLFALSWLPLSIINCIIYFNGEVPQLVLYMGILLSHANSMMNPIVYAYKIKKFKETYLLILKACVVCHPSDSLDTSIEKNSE
Chain of Vasoactive intestinal polypeptide receptor 1 (Homo sapiens) (P32241 whole entry): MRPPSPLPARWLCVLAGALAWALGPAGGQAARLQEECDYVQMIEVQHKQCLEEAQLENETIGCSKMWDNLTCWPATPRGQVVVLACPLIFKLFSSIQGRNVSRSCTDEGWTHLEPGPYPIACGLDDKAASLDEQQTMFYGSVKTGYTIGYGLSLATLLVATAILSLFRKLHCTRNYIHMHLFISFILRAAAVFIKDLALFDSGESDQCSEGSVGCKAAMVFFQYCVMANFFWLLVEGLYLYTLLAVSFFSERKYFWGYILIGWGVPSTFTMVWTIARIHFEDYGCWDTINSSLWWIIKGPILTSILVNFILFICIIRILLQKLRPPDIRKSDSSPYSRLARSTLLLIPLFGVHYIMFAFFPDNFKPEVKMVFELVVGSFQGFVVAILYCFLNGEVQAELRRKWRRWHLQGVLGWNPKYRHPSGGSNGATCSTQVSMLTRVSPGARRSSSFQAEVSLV
Chain of Endothelin receptor type B (Homo sapiens) (P24530 whole entry): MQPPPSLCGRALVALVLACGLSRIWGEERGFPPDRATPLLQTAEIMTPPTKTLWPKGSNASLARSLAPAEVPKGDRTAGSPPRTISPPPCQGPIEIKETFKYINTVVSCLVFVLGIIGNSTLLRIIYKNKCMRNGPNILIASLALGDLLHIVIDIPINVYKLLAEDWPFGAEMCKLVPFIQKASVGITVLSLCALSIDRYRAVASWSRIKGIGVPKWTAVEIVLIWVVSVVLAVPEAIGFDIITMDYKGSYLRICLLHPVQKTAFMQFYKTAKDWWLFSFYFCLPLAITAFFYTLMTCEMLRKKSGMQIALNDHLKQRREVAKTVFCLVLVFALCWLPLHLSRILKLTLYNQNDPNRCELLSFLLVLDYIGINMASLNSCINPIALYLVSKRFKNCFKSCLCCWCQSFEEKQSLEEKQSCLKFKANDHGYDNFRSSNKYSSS

SMILES	inhibition [1]	inhibition [2]	inhibition [3]	inhibition [4]	inhibition at 10 µM [5]	inhibition at 10 µM [6]	inhibition [7]	inhibition [8]	inhibition [9]	inhibition [10]	inhibition [11]	inhibition [12]	inhibition [13]	inhibition [14]	residual activity [15]
c1ccc(N2CCN(Cc3nc4ccccc4[nH]3)CC2)nc1 [ABT-724]	11%	23%	21%	15%	< 10% (not active)	< 10% (not active)	< 10%	< 10%	< 10%	< 10%	< 10%	< 10%	< 10%	< 10%	–
CSc1cccnc1N1CCN(Cc2nc3ccccc3[nH]2)CC1 [A-769]	–	–	–	–	–	–	–	–	–	–	–	–	–	–	82%
